The values that follow come from ChEMBL document CHEMBL1145000, “Nitro and amino substitution in the D-ring of 5-(2-dimethylaminoethyl)- 2,3-methylenedioxy-5H-dibenzo[c,h][1,6]naphthyridin-6-ones: effect on topoisomerase-I targeting activity and cytotoxicity” (J Med Chem, 2003).

As a reminder, the IC50 is the point on the concentration scale where inhibition reaches its midpoint.

Assay [1] is described as follows: Cytotoxic activity against human lymphoblast tumor cell line CPT-K5 after 4 days of treatment. As to conditions: CPT-K5, 96 h. Type of assay: functional.
Assay [2] has as its target T1, DNA topoisomerase 1 (Homo sapiens) (UniProt P11387).
T1 sequence (whole entry): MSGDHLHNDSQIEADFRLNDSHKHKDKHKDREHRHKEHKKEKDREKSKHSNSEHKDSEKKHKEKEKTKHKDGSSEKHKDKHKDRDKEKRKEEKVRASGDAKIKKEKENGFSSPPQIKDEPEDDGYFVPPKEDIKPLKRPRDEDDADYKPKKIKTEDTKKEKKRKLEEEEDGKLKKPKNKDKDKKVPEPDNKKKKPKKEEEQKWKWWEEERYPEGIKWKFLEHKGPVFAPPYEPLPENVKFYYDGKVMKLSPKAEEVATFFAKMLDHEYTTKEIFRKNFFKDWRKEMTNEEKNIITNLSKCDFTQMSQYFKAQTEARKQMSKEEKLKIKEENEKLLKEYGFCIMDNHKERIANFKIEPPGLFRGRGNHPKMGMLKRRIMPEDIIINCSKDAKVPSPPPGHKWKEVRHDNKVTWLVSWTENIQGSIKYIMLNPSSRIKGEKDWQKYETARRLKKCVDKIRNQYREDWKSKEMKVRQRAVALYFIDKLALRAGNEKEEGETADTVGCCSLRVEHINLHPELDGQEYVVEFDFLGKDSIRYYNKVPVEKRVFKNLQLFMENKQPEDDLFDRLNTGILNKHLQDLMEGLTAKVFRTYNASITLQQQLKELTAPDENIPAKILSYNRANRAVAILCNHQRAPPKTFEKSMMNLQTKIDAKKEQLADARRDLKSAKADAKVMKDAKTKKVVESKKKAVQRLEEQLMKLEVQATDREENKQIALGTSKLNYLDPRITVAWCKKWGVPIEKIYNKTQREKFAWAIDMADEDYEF
Description: Effective concentration required to cleave DNA, mediated by human DNA topoisomerase I (TOP1) reported as REC i.e. concentration relative to topotecan (assumed as 1)

A further assay concerns RPMI 8402. Put plainly: Cytotoxic activity against human lymphoblast tumor cell line RPMI8402 after 4 days of treatment. Type of assay: functional, cell-based. As to conditions: RPMI 8402, 96 h.

`CC[C@@]1(O)C(=O)OCc2c1cc1n(c2=O)Cc2cc3c(CN(C)C)c(O)ccc3nc2-1` [TOPOTECAN] gave a half-maximal inhibitory concentration (IC50) in assay [1] greater than 50000 nM. Moreover, in assay [2], the REC was 1.

On to `CN(C)CCn1c(=O)c2cccc(N)c2c2cnc3cc4c(cc3c21)OCO4`, for which the IC50 with RPMI 8402 is 340 nM; in assay [1], 3200 nM. The REC in assay [2] was 15.

For `COc1cc([C@@H]2c3cc4c(cc3[C@@H](O[C@@H]3O[C@@H]5CO[C@@H](c6cccs6)O[C@H]5[C@H](O)[C@H]3O)[C@H]3COC(=O)[C@H]23)OCO4)cc(OC)c1O` [TENIPOSIDE], in assay [1], inhibition was half-maximal at 280 nM (IC50). Also, the REC in assay [2] was greater than 1000.

In turn, `COc1cc2c(=O)n(CCN(C)C)c3c4cc5c(cc4ncc3c2cc1OC)OCO5` showed a concentration for half-maximal inhibition (IC50) in assay [1] of 900 nM.

For `CN(C)CCn1c(=O)c2ccc(N)cc2c2cnc3cc4c(cc3c21)OCO4`, the IC50 with RPMI 8402 is 25 nM; in assay [1], 1000 nM. In assay [2], the REC stood at 0.5.

Consider `CN(C)CCn1c(=O)c2cc(N)ccc2c2cnc3cc4c(cc3c21)OCO4`, for which the IC50 with RPMI 8402 amounted to 80 nM; in assay [1], 380 nM. For the same molecule, in assay [2], the REC turned out to be 8.

Turning to `CCCCn1c(=O)c2cc([N+](=O)[O-])ccc2c2cnc3cc4c(cc3c21)OCO4`, the figures for the IC50 (in the assay on RPMI 8402; in assay [1]) were 240 nM and greater than 10000 nM, respectively. Also, the REC in assay [2] was 10.

As for `CN(C)CCn1c(=O)c2ccccc2c2cnc3cc4c(cc3c21)OCO4`, the IC50 in the assay on RPMI 8402 stood at 60 nM; in assay [1] it was 950 nM. The same molecule yielded an REC in assay [2] of 6.

Turning to `COc1cc2c(=O)n(CCN(C)C)c3c4cc5c(cc4nnc3c2cc1OC)OCO5`, in assay [1], the IC50 amounted to 600 nM. In addition, in assay [2], the REC was found to be 0.3.

As to `CCCCn1c(=O)c2cc(N)ccc2c2cnc3cc4c(cc3c21)OCO4`, the results for the IC50 (with RPMI 8402; in assay [1]) were 1250 nM and greater than 10000 nM, respectively. In assay [2], the REC was 500.

For `CN(C)CCn1c(=O)c2ccc([N+](=O)[O-])cc2c2cnc3cc4c(cc3c21)OCO4`, the 50% inhibitory concentration (IC50) with RPMI 8402 turned out to be 2 nM; in assay [1], 2800 nM. Moreover, in assay [2], the REC is 0.1.

With `CN1CCN(c2ccnc3cc4c(cc23)OCO4)C(=O)c2cc([N+](=O)[O-])ccc21`, the IC50 in the assay on RPMI 8402 was 3000 nM; in assay [1], greater than 10000 nM. Also, the REC in assay [2] was determined as 1000.

`CC[C@@]1(O)C(=O)OCc2c1cc1n(c2=O)Cc2cc3ccccc3nc2-1` [CAMPTOTHECIN] yielded an IC50 with RPMI 8402 of 5 nM. Moreover, in assay [2], the REC turned out to be 0.5.

Take `CN(C)CCn1c(=O)c2cccc([N+](=O)[O-])c2c2cnc3cc4c(cc3c21)OCO4`: the IC50 with RPMI 8402 is 4800 nM; in assay [1], greater than 10000 nM. The REC in assay [2] turned out to be 1000.

Take `CN(C)CCn1c(=O)c2cc([N+](=O)[O-])ccc2c2cnc3cc4c(cc3c21)OCO4`: the IC50 in the assay on RPMI 8402 was 3 nM; in assay [1], 330 nM. Moreover, the REC in assay [2] was determined as 0.2.
